PubChem BioAssay AID330 (DTP/NCI, 2004)
Where “and” joins values, the source holds several entries; their conditions need not be identical. Identical values can stand only once. Toxic doses and inconclusive results are not listed. How the source made its calls: active means survival T/C of 150% or more; inactive means T/C below 125% in these data. Peptide text beside a SMILES is read from it. * marks the point of attachment. Cbz = O=C(OCc1ccccc1)*

System: P388 leukemia ip, CD2F1 mice, survival T/C
Test: NCI In Vivo Anticancer Drug Screen. Data for tumor model P388 Leukemia (intraperitoneal) in CD2F1 (CDF1) mice
Conditions: endpoint: median survival time, higher = longer survival
Method in brief: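 Mice carrying the transplanted tumor received test compound or vehicle. Survival was recorded in each group, and the value is the treated-group measurement divided by that of the vehicle-treated control group.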

[1] = dose: 50.0 mg/kg/injection, schedule: Q01DX005 (ip), vehicle: saline with Tween-80
[2] = dose: 100.0 mg/kg/injection, schedule: Q01DX005 (ip), vehicle: saline with Tween-80
[3] = dose: 100.0 mg/kg/injection, schedule: Q04DX003 (ip), vehicle: saline with Tween-80
[4] = dose: 200.0 mg/kg/injection, schedule: Q04DX003 (ip), vehicle: saline with Tween-80
[5] = dose: 60.0 mg/kg/injection, schedule: Q01DX005 (ip), vehicle: saline with Tween-80
[6] = dose: 120.0 mg/kg/injection, schedule: Q01DX005 (ip), vehicle: saline with Tween-80
[7] = dose: 240.0 mg/kg/injection, schedule: Q01DX005 (ip), vehicle: saline with Tween-80
[8] = dose: 50.0 mg/kg/injection, schedule: Q01DX009 (ip), vehicle: suspension in saline
[9] = dose: 100.0 mg/kg/injection, schedule: Q01DX009 (ip), vehicle: suspension in saline
[10] = dose: 50.0 mg/kg/injection, schedule: Q01DX009 (ip), vehicle: saline
[11] = dose: 50.0 mg/kg/injection, schedule: Q01DX005 (ip), vehicle: Klucel (hydroxypropylcellulose) (HPC)
[12] = dose: 100.0 mg/kg/injection, schedule: Q01DX005 (ip), vehicle: Klucel (hydroxypropylcellulose) (HPC)
[13] = dose: 50.0 mg/kg/injection, schedule: Q01DX005 (ip), vehicle: saline

Measured: T/C

CC(C)(NCc1ccccc1)C(=O)OC(C)(C)C(=O)NCc1ccccc1
inactive: dose: 25.0 mg/kg/injection, schedule: Q01DX005 (ip), vehicle: saline with Tween-80 100 % of control and 103 % of control | [1] 95 % of control and 108 % of control | [2] 95 % of control

CC(C)OC(=O)Nc1nc2ccc(C(=O)OC(C)C)cc2[nH]1
inactive: dose: 50.0 mg/kg/injection, schedule: Q04DX003 (ip), vehicle: saline with Tween-80 102 % of control | [3] 104 % of control and 116 % of control | [4] 112 % of control and 113 % of control

O=C(C(=O)c1ccc(C(=O)C(=O)c2ccccc2)cc1)c1ccccc1
inactive: [5] 104 % of control | [6] 93 % of control | [7] 96 % of control

Cc1nnc(NC(=O)CCl)s1
inactive: dose: 25.0 mg/kg/injection, schedule: Q01DX009 (ip), vehicle: saline with Tween-80 95 % of control | dose: 50.0 mg/kg/injection, schedule: Q01DX009 (ip), vehicle: saline with Tween-80 100 % of control | dose: 100.0 mg/kg/injection, schedule: Q01DX009 (ip), vehicle: saline with Tween-80 104 % of control

Clc1cc2c(cc1CO/N=C\c1ccc3c(c1)OCO3)OCO2
inactive: dose: 50.0 mg/kg/injection, schedule: Q04DX003 (ip), vehicle: saline sonified 90 % of control | dose: 100.0 mg/kg/injection, schedule: Q04DX003 (ip), vehicle: saline sonified 95 % of control | dose: 200.0 mg/kg/injection, schedule: Q04DX003 (ip), vehicle: saline sonified 90 % of control

Cc1cnc(C)n2ncnc12
inactive: dose: 100.0 mg/kg/injection, schedule: Q04DX003 (ip), vehicle: saline 93 % of control | dose: 200.0 mg/kg/injection, schedule: Q04DX003 (ip), vehicle: saline 95 % of control | dose: 400.0 mg/kg/injection, schedule: Q04DX003 (ip), vehicle: saline 88 % of control

CCCc1nc2ccccc2c(=O)n1/N=C/c1ccsc1
inactive: [3] 100 % of control | [4] 90 % of control | dose: 400.0 mg/kg/injection, schedule: Q04DX003 (ip), vehicle: saline with Tween-80 90 % of control

C1CCN2CC3CCCN4CCCC(C2C1)C34 (centres undefined)
inactive: dose: 6.2 mg/kg/injection, schedule: Q01DX007 (ip), vehicle: carboxymethylcellulose (CMC) 91 % of control and 100 % of control | dose: 12.5 mg/kg/injection, schedule: Q01DX007 (ip), vehicle: carboxymethylcellulose (CMC) 91 % of control | dose: 25.0 mg/kg/injection, schedule: Q01DX007 (ip), vehicle: carboxymethylcellulose (CMC) 91 % of control

CC(=O)Oc1ccc(=O)[nH]c1
inactive: dose: 12.5 mg/kg/injection, schedule: Q01DX009 (ip), vehicle: saline 100 % of control and 105 % of control

[C-]#[O+].[C-]#[O+].[CH3][Sn]([CH3])[c]1ccccc1.[Fe+5].[c-]1[c-][c-][cH-][c-]1
inactive: [3] 108 % of control | [4] 118 % of control

OC(CN(Cc1nc2ccccc2[nH]1)Cc1nc2ccccc2[nH]1)CN(Cc1nc2ccccc2[nH]1)Cc1nc2ccccc2[nH]1
inactive: [5] 115 % of control | [6] 115 % of control

O=C1CCSC(=S)N1c1ccc(C(F)(F)F)cc1
inactive: [8] 90 % of control | [9] 97 % of control | dose: 200.0 mg/kg/injection, schedule: Q01DX009 (ip), vehicle: suspension in saline 94 % of control

Nc1cccc(C(=O)O)c1O
inactive: [10] 100 % of control | dose: 100.0 mg/kg/injection, schedule: Q01DX009 (ip), vehicle: saline 106 % of control | dose: 200.0 mg/kg/injection, schedule: Q01DX009 (ip), vehicle: saline 104 % of control

CC(/C=C/c1ccco1)=N\NC(=S)Nc1ccc(Br)cc1
inactive: dose: 100.0 mg/kg/injection, schedule: Q04DX002 (ip), vehicle: Klucel (hydroxypropylcellulose) (HPC) 97 % of control | dose: 200.0 mg/kg/injection, schedule: Q04DX002 (ip), vehicle: Klucel (hydroxypropylcellulose) (HPC) 97 % of control | dose: 400.0 mg/kg/injection, schedule: Q04DX002 (ip), vehicle: Klucel (hydroxypropylcellulose) (HPC) 92 % of control

CC1C(=O)C23CCC4C5(C)CCCC4(C4OCCN4C5)C2CCC1C3 (centres undefined)
inactive: dose: 1.0 mg/kg/injection, schedule: Q01DX009 (ip), vehicle: Klucel (hydroxypropylcellulose) (HPC) 99 % of control | dose: 2.0 mg/kg/injection, schedule: Q01DX009 (ip), vehicle: Klucel (hydroxypropylcellulose) (HPC) 97 % of control | dose: 4.0 mg/kg/injection, schedule: Q01DX009 (ip), vehicle: Klucel (hydroxypropylcellulose) (HPC) 98 % of control | dose: 8.0 mg/kg/injection, schedule: Q01DX009 (ip), vehicle: Klucel (hydroxypropylcellulose) (HPC) 97 % of control

CC(C)(C)c1ccc(OCc2cnc[nH]2)cc1
inactive: dose: 25.0 mg/kg/injection, schedule: Q01DX001 (ip), vehicle: saline 102 % of control | dose: 50.0 mg/kg/injection, schedule: Q01DX001 (ip), vehicle: saline 101 % of control | dose: 100.0 mg/kg/injection, schedule: Q01DX001 (ip), vehicle: saline 110 % of control

Cc1ccc(S(=O)(=O)CS(N)(=O)=O)cc1
inactive: dose: 100.0 mg/kg/injection, schedule: Q01DX001 (ip), vehicle: saline with Tween-80 99 % of control | dose: 200.0 mg/kg/injection, schedule: Q01DX001 (ip), vehicle: saline with Tween-80 118 % of control | dose: 400.0 mg/kg/injection, schedule: Q01DX001 (ip), vehicle: saline with Tween-80 97 % of control

CCOC(=O)C1=C(C(=O)c2ccccc2)C(c2cccc([N+](=O)[O-])c2)C(C(=O)c2ccccc2)=C(C(=O)OCC)N1
inactive: dose: 30.0 mg/kg/injection, schedule: Q01DX005 (ip), vehicle: saline with Tween-80 104 % of control | [5] 104 % of control | [6] 104 % of control | [7] 104 % of control

CCOC(=O)C(Cc1c[nH]c2ccccc12)NC(=O)C(Cc1ccccc1)NC(=O)C(Cc1cnc[nH]1)NC(=O)OCc1ccccc1 (stereo not drawn) (Cbz-His-Phe-Trp-OEt; configuration not given here)
inactive: [11] 93 % of control | [12] 93 % of control | dose: 200.0 mg/kg/injection, schedule: Q01DX005 (ip), vehicle: Klucel (hydroxypropylcellulose) (HPC) 89 % of control

COc1ccc2nc3ccccc3c(SCCCCCCSc3c4ccccc4nc4ccc(OC)cc34)c2c1
inactive: dose: 15.0 mg/kg/injection, schedule: Q01DX005 (ip), vehicle: Klucel (hydroxypropylcellulose) (HPC) 101 % of control | dose: 30.0 mg/kg/injection, schedule: Q01DX005 (ip), vehicle: Klucel (hydroxypropylcellulose) (HPC) 98 % of control | dose: 60.0 mg/kg/injection, schedule: Q01DX005 (ip), vehicle: Klucel (hydroxypropylcellulose) (HPC) 100 % of control and 89 % of control and 90 % of control | dose: 240.0 mg/kg/injection, schedule: Q01DX005 (ip), vehicle: Klucel (hydroxypropylcellulose) (HPC) 89 % of control

CC1C2CCC3C4CC=C5CC(N(C)C)CCC5(C)C4CCC32CN1C (centres undefined)
inactive: dose: 12.5 mg/kg/injection, schedule: Q01DX005 (ip), vehicle: Klucel (hydroxypropylcellulose) (HPC) 105 % of control | dose: 12.5 mg/kg/injection, schedule: Q01DX005 (ip), vehicle: saline 94 % of control | dose: 25.0 mg/kg/injection, schedule: Q01DX005 (ip), vehicle: Klucel (hydroxypropylcellulose) (HPC) 105 % of control | dose: 25.0 mg/kg/injection, schedule: Q01DX005 (ip), vehicle: saline 94 % of control | dose: 25.0 mg/kg/injection, schedule: Q01DX009 (ip), vehicle: saline 105 % of control | [11] 103 % of control and 113 % of control | [13] 106 % of control and 107 % of control | [10] 88 % of control

Cc1cc2nc(C/C(=N/O)c3ccncc3)c(C/C(=N/O)c3ccncc3)nc2cc1C
inactive: [5] 93 % of control | [6] 91 % of control

Nc1nnc2nc(C(C(=O)c3ccc(Cl)cc3Cl)c3nc4nnc(N)n4[nH]c3=O)c(=O)[nH]n12
inactive: [1] 92 % of control | [2] 100 % of control | dose: 200.0 mg/kg/injection, schedule: Q01DX005 (ip), vehicle: saline with Tween-80 100 % of control

O=C1N(Cl)C(=O)C2(c3ccccc3-c3ccccc32)N1Cl
inactive: [11] 100 % of control | [12] 108 % of control

OCCOCCSc1ccccn1
inactive: [13] 109 % of control | dose: 100.0 mg/kg/injection, schedule: Q01DX005 (ip), vehicle: saline 111 % of control | dose: 200.0 mg/kg/injection, schedule: Q01DX005 (ip), vehicle: saline 111 % of control

Nc1ncnc2c1ncn2C1OCC(O)C1O (centres undefined)
inactive: [8] 119 % of control | [9] 112 % of control
